Columns and labels:
[1] = molecular target: CDK2/CyclinA2 (Homo sapiens, UniProt P24941); assay: ADP Glo kinase assay, CDK2/CyclinA2; assay type: biochemical; settings: for remaining activity at 1 µM: compound at 1 μM, read-out: Residual enzymatic activity (%) at 1 μM, CDK2 A; for Ki: Km ATP, read-out: Enzymatic inhibition, Ki, CDK2 A
Procedure, shortened: (§1)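 Dose-response used a threefold serial dilution of ten concentrations, 10-0.0005 μM, carrying 0.5% DMSO. Each room-temperature kinase reaction ran for a time optimised per enzyme and was then halted by adding ADP Glo reagent.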

[2] = molecular target: T1, FLT3-ITD (Homo sapiens, UniProt P36888); assay: ADP Glo kinase assay, FLT3-ITD; assay type: biochemical; settings: Km ATP 100 μM, read-out: Enzymatic inhibition, Ki, FLT3-ITD
T1 sequence (P36888 1-993): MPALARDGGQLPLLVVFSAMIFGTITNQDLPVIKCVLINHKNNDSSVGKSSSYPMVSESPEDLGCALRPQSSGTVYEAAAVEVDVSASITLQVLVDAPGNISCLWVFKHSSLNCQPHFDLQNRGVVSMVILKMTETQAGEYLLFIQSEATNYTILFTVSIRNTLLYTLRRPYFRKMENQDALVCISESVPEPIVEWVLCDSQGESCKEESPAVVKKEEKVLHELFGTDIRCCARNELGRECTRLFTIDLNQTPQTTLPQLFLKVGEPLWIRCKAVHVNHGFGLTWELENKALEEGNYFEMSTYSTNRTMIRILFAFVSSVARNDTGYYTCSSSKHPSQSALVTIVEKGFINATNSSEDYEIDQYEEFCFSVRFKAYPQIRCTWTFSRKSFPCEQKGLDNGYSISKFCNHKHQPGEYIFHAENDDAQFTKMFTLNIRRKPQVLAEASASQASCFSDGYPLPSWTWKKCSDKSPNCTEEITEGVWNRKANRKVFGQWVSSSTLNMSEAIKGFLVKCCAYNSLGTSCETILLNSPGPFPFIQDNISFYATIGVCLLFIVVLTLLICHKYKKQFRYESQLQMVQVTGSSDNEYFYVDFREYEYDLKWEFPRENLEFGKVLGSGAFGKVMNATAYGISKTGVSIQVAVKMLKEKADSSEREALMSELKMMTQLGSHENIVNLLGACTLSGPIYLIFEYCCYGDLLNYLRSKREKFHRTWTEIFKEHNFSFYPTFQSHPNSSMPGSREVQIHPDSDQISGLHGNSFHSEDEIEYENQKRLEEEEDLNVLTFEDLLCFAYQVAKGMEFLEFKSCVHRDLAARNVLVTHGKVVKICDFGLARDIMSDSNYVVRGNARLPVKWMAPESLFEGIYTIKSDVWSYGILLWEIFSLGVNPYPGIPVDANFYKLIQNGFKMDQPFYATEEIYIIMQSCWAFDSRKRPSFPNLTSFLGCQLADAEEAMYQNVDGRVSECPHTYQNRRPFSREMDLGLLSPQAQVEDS
Procedure, shortened: as §1

[3] = molecular target: CDK7/CyclinH/Mat1 (Homo sapiens, UniProt P50613); assay: ADP Glo kinase assay, CDK7/CyclinH/Mat1; assay type: biochemical; settings: for Ki: Km ATP, read-out: Enzymatic inhibition, Ki, CDK7 H; for remaining activity at 1 µM: compound at 1 μM, read-out: Residual enzymatic activity (%) at 1 μM, CDK7 H
Procedure, shortened: as §1

[4] = molecular target: CDK6/CyclinD3 (Homo sapiens, UniProt Q00534); assay: ADP Glo kinase assay, CDK6/CyclinD3; assay type: biochemical; settings: for Ki: Km ATP, read-out: Enzymatic inhibition, Ki, CDK6 D3; for remaining activity at 1 µM: compound at 1 μM, read-out: Residual enzymatic activity (%) at 1 μM, CDK6 D3
Procedure, shortened: as §1

[5] = molecular target: CDK1/CyclinB (Homo sapiens, UniProt P06493); assay: ADP Glo kinase assay, CDK1/CyclinB; assay type: biochemical; settings: for Ki: Km ATP, read-out: Enzymatic inhibition, Ki, CDK1 B; for remaining activity at 1 µM: compound at 1 μM, read-out: Residual enzymatic activity (%) at 1 μM, CDK1 B
Procedure, shortened: as §1

[6] = molecular target: CDK4/CyclinD1 (Homo sapiens, UniProt P11802); assay: ADP Glo kinase assay, CDK4/CyclinD1; assay type: biochemical; settings: for remaining activity at 1 µM: compound at 1 μM, read-out: Residual enzymatic activity (%) at 1 μM, CDK4 D1; for Ki: Km ATP, read-out: Enzymatic inhibition, Ki, CDK4 D1
Procedure, shortened: as §1

[7] = tested on: MV-4-11; assay: Proliferation assay (resazurin, leukemia cell lines), MV-4-11; assay type: cell-based; settings: Homo sapiens, MV4-11, read-out: 72 h Growth inhibition GI50, MV-4-11 cells
Text: The following compounds were used as comparators.

[8] = molecular target: CDK9/CyclinT1 (Homo sapiens, UniProt P50750); assay: ADP Glo kinase assay, CDK9/CyclinT1; assay type: biochemical; settings: CDK9/CyclinT1; Km ATP; read-out: Enzymatic inhibition, Ki, CDK9 T1
Procedure, shortened: as §1

Sequence of CDK6/CyclinD3 (Q00534 whole entry, species assumed): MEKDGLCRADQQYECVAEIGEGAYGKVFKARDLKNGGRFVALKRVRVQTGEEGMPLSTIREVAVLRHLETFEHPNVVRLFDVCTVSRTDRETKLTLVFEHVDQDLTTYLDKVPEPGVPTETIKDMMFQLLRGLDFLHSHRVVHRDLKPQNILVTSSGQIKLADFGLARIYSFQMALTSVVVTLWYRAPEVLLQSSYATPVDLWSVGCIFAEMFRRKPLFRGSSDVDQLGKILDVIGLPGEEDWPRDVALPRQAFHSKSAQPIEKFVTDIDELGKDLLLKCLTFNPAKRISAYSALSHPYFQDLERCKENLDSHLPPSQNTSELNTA
Sequence of CDK6/CyclinD3 (P30281 whole entry partner, species assumed): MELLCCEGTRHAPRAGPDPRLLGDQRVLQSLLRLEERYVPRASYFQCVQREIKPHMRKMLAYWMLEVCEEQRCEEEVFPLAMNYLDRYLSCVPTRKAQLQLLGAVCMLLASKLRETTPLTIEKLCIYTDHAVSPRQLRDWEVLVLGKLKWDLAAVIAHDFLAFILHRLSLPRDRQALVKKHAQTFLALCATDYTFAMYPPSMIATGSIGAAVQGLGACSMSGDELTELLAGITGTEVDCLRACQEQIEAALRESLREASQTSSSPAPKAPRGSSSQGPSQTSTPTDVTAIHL
Sequence of CDK7/CyclinH/Mat1 (P50613 whole entry, species assumed): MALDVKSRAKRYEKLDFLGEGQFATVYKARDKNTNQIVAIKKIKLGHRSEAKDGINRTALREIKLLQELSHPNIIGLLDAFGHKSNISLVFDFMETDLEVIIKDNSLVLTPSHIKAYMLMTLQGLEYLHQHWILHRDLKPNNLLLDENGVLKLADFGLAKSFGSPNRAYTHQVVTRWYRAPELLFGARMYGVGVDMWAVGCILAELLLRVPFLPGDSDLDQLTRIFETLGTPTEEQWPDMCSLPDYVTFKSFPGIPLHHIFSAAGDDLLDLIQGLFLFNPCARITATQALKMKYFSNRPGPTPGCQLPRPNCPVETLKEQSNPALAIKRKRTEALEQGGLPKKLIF
Sequence of CDK7/CyclinH/Mat1 (P51946 whole entry partner, species assumed): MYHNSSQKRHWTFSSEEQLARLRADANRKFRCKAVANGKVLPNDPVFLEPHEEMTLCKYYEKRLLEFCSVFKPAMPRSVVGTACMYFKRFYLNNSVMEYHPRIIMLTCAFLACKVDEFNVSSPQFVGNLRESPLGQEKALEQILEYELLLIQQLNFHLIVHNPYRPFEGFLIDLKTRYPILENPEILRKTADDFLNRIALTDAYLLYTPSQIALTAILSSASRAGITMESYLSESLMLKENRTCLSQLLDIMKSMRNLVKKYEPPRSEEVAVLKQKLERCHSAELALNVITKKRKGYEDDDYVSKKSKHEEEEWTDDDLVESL
Sequence of CDK7/CyclinH/Mat1 (P51948 whole entry partner, species assumed): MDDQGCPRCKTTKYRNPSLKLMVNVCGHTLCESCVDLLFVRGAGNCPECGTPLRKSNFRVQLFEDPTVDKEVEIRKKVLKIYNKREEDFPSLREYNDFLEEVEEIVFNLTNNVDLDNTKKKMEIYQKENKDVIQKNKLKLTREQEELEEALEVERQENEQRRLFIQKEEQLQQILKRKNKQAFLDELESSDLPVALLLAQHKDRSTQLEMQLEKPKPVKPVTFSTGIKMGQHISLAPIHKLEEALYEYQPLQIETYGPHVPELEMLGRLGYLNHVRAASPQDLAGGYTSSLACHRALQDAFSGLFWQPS
Sequence of CDK4/CyclinD1 (P11802 whole entry, species assumed): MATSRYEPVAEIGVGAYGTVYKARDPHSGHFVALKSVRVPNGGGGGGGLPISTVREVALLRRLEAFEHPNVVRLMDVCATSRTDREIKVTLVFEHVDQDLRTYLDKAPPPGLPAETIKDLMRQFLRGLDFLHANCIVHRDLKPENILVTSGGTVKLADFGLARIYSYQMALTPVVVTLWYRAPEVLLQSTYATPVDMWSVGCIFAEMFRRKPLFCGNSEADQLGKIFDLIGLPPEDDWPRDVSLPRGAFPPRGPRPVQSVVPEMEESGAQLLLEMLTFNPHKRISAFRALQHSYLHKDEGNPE
Sequence of CDK4/CyclinD1 (P24385 whole entry partner, species assumed): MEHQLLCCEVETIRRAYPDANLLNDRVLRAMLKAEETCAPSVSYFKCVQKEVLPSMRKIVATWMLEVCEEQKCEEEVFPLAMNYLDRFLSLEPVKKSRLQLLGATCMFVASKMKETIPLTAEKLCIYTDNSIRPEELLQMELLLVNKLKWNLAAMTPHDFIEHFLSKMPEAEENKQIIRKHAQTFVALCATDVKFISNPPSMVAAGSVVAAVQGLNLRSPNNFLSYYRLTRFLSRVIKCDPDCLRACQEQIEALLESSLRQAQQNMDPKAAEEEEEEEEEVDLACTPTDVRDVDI
Sequence of CDK1/CyclinB (P06493 whole entry, species assumed): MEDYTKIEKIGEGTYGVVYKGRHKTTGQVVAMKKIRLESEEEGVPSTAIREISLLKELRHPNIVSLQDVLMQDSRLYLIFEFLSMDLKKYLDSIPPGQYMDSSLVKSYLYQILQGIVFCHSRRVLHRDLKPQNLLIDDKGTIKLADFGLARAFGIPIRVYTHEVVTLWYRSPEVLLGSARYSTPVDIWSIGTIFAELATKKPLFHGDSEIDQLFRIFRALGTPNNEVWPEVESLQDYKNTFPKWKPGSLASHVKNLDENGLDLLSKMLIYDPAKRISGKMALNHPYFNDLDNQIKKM
Sequence of CDK1/CyclinB (P14635 whole entry partner, species assumed): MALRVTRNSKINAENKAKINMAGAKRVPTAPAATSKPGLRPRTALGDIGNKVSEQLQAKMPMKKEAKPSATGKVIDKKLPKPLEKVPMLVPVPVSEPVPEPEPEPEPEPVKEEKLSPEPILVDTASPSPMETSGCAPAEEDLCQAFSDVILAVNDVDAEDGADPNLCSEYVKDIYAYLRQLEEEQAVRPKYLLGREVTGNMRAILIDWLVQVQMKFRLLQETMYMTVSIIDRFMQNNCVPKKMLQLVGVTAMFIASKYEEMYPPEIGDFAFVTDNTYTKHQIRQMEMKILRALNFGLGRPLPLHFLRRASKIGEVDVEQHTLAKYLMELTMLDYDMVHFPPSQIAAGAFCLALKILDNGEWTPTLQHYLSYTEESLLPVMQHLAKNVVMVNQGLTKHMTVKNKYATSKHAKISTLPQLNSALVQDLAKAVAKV
Sequence of CDK9/CyclinT1 (P50750 whole entry, species assumed): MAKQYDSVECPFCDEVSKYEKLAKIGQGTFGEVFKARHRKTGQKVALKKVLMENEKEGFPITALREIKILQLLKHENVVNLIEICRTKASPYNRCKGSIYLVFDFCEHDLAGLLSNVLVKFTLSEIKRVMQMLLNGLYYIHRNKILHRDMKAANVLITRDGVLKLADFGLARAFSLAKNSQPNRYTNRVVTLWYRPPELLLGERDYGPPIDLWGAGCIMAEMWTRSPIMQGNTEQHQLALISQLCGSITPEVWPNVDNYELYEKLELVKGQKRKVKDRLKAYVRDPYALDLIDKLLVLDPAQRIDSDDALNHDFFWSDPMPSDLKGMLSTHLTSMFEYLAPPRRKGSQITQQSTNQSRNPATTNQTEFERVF
Sequence of CDK9/CyclinT1 (O60563 whole entry partner, species assumed): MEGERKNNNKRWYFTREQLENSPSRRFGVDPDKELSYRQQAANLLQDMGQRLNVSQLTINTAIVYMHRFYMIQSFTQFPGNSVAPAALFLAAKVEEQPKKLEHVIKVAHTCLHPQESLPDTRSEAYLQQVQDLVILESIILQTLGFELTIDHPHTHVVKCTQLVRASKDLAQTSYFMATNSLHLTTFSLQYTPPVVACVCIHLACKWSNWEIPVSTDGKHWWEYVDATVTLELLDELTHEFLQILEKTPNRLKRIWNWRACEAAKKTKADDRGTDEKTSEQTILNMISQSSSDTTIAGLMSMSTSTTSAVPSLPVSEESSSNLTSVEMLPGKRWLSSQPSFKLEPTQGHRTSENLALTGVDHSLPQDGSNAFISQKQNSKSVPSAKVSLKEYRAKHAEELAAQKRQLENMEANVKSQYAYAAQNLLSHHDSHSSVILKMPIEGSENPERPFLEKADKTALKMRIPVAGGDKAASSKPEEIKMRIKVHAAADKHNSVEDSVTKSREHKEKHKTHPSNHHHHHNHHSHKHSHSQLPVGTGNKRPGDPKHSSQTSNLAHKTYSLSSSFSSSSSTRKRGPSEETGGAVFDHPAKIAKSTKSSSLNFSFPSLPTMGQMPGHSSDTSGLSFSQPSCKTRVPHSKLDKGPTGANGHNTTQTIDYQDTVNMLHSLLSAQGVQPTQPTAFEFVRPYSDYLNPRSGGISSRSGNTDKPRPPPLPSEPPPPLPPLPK

## CS(=O)(=O)N1CCN(c2ccc(Nc3nccc(-c4cnc5ccc(-c6cccs6)cn45)n3)cn2)CC1 [Compound 21, N-(6-(4-(Methylsulfonyl)piperazin-1-yl)pyridin-3-yl)-4-(6-(thiophen-2-yl)imidazo[1,2-a]pyridin-3-yl)pyrimidin-2-amine]
[1]
  remaining activity at 1 µM: 28%
[2]
  Ki: 6 nM
[3]
  Ki: 3970 nM
[4]
  Ki: > 5000 nM
[5]
  Ki: 635 nM
[6]
  remaining activity at 1 µM: 33%
[7]
  GI50: 11 nM
[8]
  Ki: 8 nM

## Cc1cnc(Nc2ccc(N3CCN(C)CC3)nc2)nc1-c1cnc2ccccn12 [Compound 3, 4-(Imidazo[1,2-a]pyridin-3-yl)-5-methyl-N-(6-(4-methylpiperazin-1-yl)pyridin-3-yl) pyrimidin-2-amine]
[1]
  Ki: 83 nM
[2]
  Ki: 9 nM
[3]
  Ki: 2900 nM
[4]
  Ki: 522 nM
[5]
  Ki: 505 nM
[6]
  Ki: 46 nM
[7]
  GI50: 32 nM
[8]
  Ki: 136 nM

## CS(=O)(=O)N1CCN(c2ccc(Nc3nccc(-c4cnc5ccc(-c6cncnc6)cn45)n3)cn2)CC1 [Compound 20, N-(6-(4-(Methylsulfonyl)piperazin-1-yl)pyridin-3-yl)-4-(6-(pyrimidin-5-yl)imidazo[1,2-a]pyridin-3-yl)pyrimidin-2-amine]
[1]
  remaining activity at 1 µM: 41%
[2]
  Ki: 1450 nM
[3]
  Ki: 890 nM
[4]
  Ki: > 5000 nM
[5]
  Ki: > 5000 nM
[6]
  remaining activity at 1 µM: 86%
[7]
  GI50: 94 nM
[8]
  Ki: 56 nM

## CC(=O)N1CCN(c2ccc(Nc3nccc(-c4cnc5ccc(-c6cccc7[nH]ccc67)cn45)n3)cn2)CC1 [Compound 49, 1-(4-(5-((4-(6-(1H-Indol-4-yl)imidazo[1,2-a]pyridin-3-yl)pyrimidin-2-yl)amino)pyridin-2-yl)piperazin-1-yl)ethan-1-one]
[1]
  remaining activity at 1 µM: 51%
[2]
  Ki: > 500 nM
[3]
  remaining activity at 1 µM: 81%
[4]
  remaining activity at 1 µM: 38%
[5]
  remaining activity at 1 µM: 94%
[6]
  remaining activity at 1 µM: 92%
[7]
  GI50: 17 nM
[8]
  Ki: 171 nM

## CN1CCN(c2ccc(Nc3nccc(-c4cnc5ccc(C(F)(F)F)cn45)n3)cn2)CC1 [Compound 36, N-(6-(4-Methylpiperazin-1-yl)pyridin-3-yl)-4-(6-(trifluoromethyl)imidazo[1,2-a]pyridin-3-yl)pyrimidin-2-amine]
[1]
  Ki: 131 nM
[2]
  Ki: 10 nM
[3]
  remaining activity at 1 µM: 31%
[4]
  remaining activity at 1 µM: 34%
[5]
  Ki: 198 nM
[6]
  Ki: 530 nM
[7]
  GI50: 18 nM
[8]
  Ki: 34 nM

## c1ccc(-c2ccc3ncc(-c4ccnc(Nc5ccc(NC6CCOCC6)nc5)n4)n3c2)cc1 [Compound 58, N^5-(4-(6-Phenylimidazo[1,2-a]pyridin-3-yl)pyrimidin-2-yl)-N^2-(tetrahydro-2H-pyran-4-yl)pyridine-2,5-diamine]
[1]
  remaining activity at 1 µM: 73%
[2]
  Ki: 140 nM
[3]
  remaining activity at 1 µM: 73%
[4]
  remaining activity at 1 µM: 45%
[5]
  remaining activity at 1 µM: 77%
[6]
  remaining activity at 1 µM: 33%
[7]
  GI50: 28 nM
[8]
  Ki: 401 nM

## CC(=O)N1CCN(c2ccc(Nc3ncc(F)c(-c4cnc5ccccn45)n3)cn2)CC1 [Compound 10, 1-(4-(5-((5-Fluoro-4-(imidazo[1,2-a]pyridin-3-yl)pyrimidin-2-yl)amino)pyridin-2-yl)piperazin-1-yl)ethan-1-one]
[1]
  Ki: 2 nM
[2]
  Ki: 18 nM
[3]
  Ki: 895 nM
[4]
  Ki: 451 nM
[5]
  Ki: 61 nM
[6]
  Ki: > 500 nM
[7]
  GI50: 6 nM
[8]
  Ki: 50 nM

## CC(=O)N1CCN(c2ccc(Nc3ncc(C)c(-c4cnc5ccccn45)n3)cn2)CC1 [Compound 11, 1-(4-(5-((4-(Imidazo[1,2-a]pyridin-3-yl)-5-methylpyrimidin-2-yl)amino)pyridin-2-yl)piperazin-1-yl)ethan-1-one]
[1]
  Ki: 101 nM
[2]
  Ki: 20 nM
[3]
  remaining activity at 1 µM: 20%
[4]
  Ki: 1010 nM
[5]
  remaining activity at 1 µM: 54%
[6]
  remaining activity at 1 µM: 21%
[7]
  GI50: 88 nM
[8]
  Ki: 1340 nM

## CN1CCN(c2ccc(Nc3nccc(-c4cnc5ccc(Cl)cn45)n3)cn2)CC1 [Compound 22, 4-(6-Chloroimidazo[1,2-a]pyridin-3-yl)-N-(6-(4-methylpiperazin-1-yl)pyridin-3-yl) pyrimidin-2-amine]
[1]
  Ki: 38 nM
[2]
  Ki: 5 nM
[3]
  Ki: 770 nM
[4]
  Ki: 243 nM
[5]
  Ki: 199 nM
[6]
  Ki: 94 nM
[7]
  GI50: 6 nM
[8]
  Ki: 10 nM

## CN1CCN(c2ccc(Nc3nccc(-c4cnc5ccccn45)n3)cn2)CC1 [Compound 1, 4-(Imidazo[1,2-a]pyridin-3-yl)-N-(6-(4-methylpiperazin-1-yl)pyridin-3-yl)pyrimidin-2-amine]
[1]
  Ki: 59 nM
[2]
  Ki: 2 nM
[3]
  Ki: 1090 nM
[4]
  Ki: 43 nM
[5]
  Ki: 141 nM
[6]
  Ki: 8 nM
[7]
  GI50: 1 nM
[8]
  Ki: 2 nM

## COC(=O)N1CCC(c2ccc(Nc3ncc(F)c(-c4cnc5ccc(-c6ccccc6)cn45)n3)cn2)CC1 [Compound 29, Methyl 4-(5-((5-fluoro-4-(6-phenylimidazo[1,2-a]pyridin-3-yl)pyrimidin-2-yl)amino)pyridin-2-yl)piperidine-1-carboxylate]
[1]
  remaining activity at 1 µM: 25%
[2]
  Ki: 257 nM
[3]
  Ki: > 5000 nM
[4]
  remaining activity at 1 µM: 61%
[5]
  remaining activity at 1 µM: 69%
[6]
  remaining activity at 1 µM: 98%
[7]
  GI50: 337 nM
[8]
  Ki: > 5000 nM

## CC(=O)N1CCN(c2ccc(Nc3nccc(-c4cnc5ccc(-c6ccncc6)cn45)n3)cn2)CC1 [Compound 46, 1-(4-(5-((4-(6-(Pyridin-4-yl)imidazo[1,2-a]pyridin-3-yl)pyrimidin-2-yl)amino)pyridin-2-yl)piperazin-1-yl)ethan-1-one]
[1]
  remaining activity at 1 µM: 62%
[2]
  Ki: 80 nM
[3]
  remaining activity at 1 µM: 71%
[4]
  remaining activity at 1 µM: 31%
[5]
  remaining activity at 1 µM: 21%
[6]
  remaining activity at 1 µM: 92%
[7]
  GI50: 25 nM
[8]
  Ki: 310 nM

## CCCNc1ccc(Nc2nccc(-c3cnc4ccc(Br)cn34)n2)cn1 [Compound 74, N^5-(4-(6-Bromoimidazo[1,2-a]pyridin-3-yl)pyrimidin-2-yl)-N^2-propylpyridine-2,5-diamine]
[1]
  remaining activity at 1 µM: 41%
[2]
  Ki: 40 nM
[3]
  remaining activity at 1 µM: 78%
[4]
  remaining activity at 1 µM: 86%
[5]
  remaining activity at 1 µM: 82%
[6]
  remaining activity at 1 µM: 54%
[7]
  GI50: 20 nM
[8]
  Ki: 102 nM

Reference: patent publication US20240158391A1, “DERIVATIVES OF 4-(IMIDAZO[1,2-A]PYRIDIN-3-YL)-N-(PYRIDIN-3-YL) PYRIMIDIN-2- AMINE FOR TREATING PROLIFERATIVE DISEASES AND CONDITIONS” (AUCENTRA THERAPEUTICS PTY LTD, priority 2019, published 2024)
